In assay [1] the target is GABA-A receptor. Put plainly: 35S-TBPS binding assay (GABAA receptor binding ability assay). Further details: species or system Sprague-Dawley rat. To be noted: rat cerebral cortex cell membrane, 5 μM GABA, 2 nM 35S-TBPS; read-out: IC50 on inhibiting the TBPS binding activity, 35S-TBPS bindng assay. A digest of the protocol:
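Male Sprague-Dawley rat cerebral cortex membranes in PBS, preincubated with compound (1% DMSO, 8-point 3-fold series) 5 min at 25° C, then GABA 5 μM final 5 min, then 2 nM 35S-TBPS for 20 h at 4° C. Bound radioactivity filtered on PEI-treated GF/C and counted. % inhibition relative to DMSO and 10 μM P026-2 controls; IC50 from 4-parameter fit.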

Assay [2] deals with T1, human GABAA receptor α1, β2 and γ2 subunit (HEK293T cell line) (Homo sapiens, UniProt P14867+P47870).
T1 construct: expressed in transfected cells
Put plainly: Positive regulatory effect on GABAA receptor, manual patch clamp. It counts as cell-based. The note with it: whole-cell current, 1 μM GABA. On the procedure: The objective of this test example is to determine the positive regulatory effect of the compound on GABAA receptor by the electrophysiological manual patch clamp method.
Manual patch clamp system HEKA EPC10 USB signal amplifier and digital conversion system (purchased from HEKA Electronics, Germany), centrifuge (Eppendorf, etc.), carbon dioxide incubator (purchased from Thermo, etc.), biological safety cabinet (Thermo, etc.), pipette (purchased from Eppendorf, etc.).
The cells were grown in a culture dish with DMEM medium (purchased from Invitrogen), and cultured in an incubator at 37° C. and 5% CO2. Before the electrophysiological experiment, the cells were transferred to a round glass slide placed in the culture dish, and grown in the same culture medium and under the same culture condition as above. The density of cells on each round glass slide should meet the requirement that most cells were independent and individual.
Each test compound was diluted in gradient with DMSO to obtain a stock solution, which was then diluted with extracellular fluid by 1,000-fold to obtain the final test concentration. The final concentration of DMSO in the compound solution with each concentration was 0.1%. The experiment used the manual patch clamp system HEKA EPC10 USB signal amplifier and digital conversion system for whole cell current recording. The round glass slide with HEK293T GABAA cells grown on the surface was taken out of the culture dish, and placed in the electrophysiological recording tank under the inverted microscope. The recording tank was continuously perfused with extracellular fluid. During the experiment, the whole-cell current recording technology was used to record the chloride current of the GABAA channel. 1 μM GABA was used to activate the chloride current of the GABAA channel of each cell as an initial control. 1 μM GABA acted on the cell through the drug perfusion system to induce the chloride current of the GABAA channel, the action time was about 3 to 5 seconds, and the current value was used as the initial control value. The test concentration of compound was perfused and incubated for 2 to 5 minutes. […] GABA solution (mixed with the test concentration of compound) was given to the cells to observe the enhancement effect of the test compound on the current induced by 1 μM GABA. When the cell state was stable, the test compound acted on the same cell from low to high concentration to record the enhancement effect of the induced current.
The experimental data was analyzed by HEKA Patchmaster, Microsoft Excel and the data analysis software provided by Graphpad Prism.
On the technique in general: Patch clamp records ionic current or voltage across a cell membrane.

In assay [3] the test system is ICR mice. Put plainly: Forced swimming model in mice. The note with it: for Mean (immobility, %): floating time/240 s; for Mean (immobility, s): latter four minutes of 6 min swim. Type of assay: in vivo. How it is done: The antidepressant effect of the compound was evaluated by the forced swimming model in mice.
Compounds of Examples 1 to 3, Example 9, Example 40, Example 41, Examples 48 to 52, Example 90 and Example 98 of the present invention, prepared by the applicant.
Male ICR mice (25-35 g) were adapted in the experiment environment for 3 days before the forced swimming test.
According to the experiment design, the mice were randomly grouped on the day before the experiment according to body weight, with 12 mice in each group. Before the test, the compounds of each example were administered intragastrically according to the Tmax thereof in the brain in mice pharmacokinetic experiment.
Respectively: • 1) Model group (0.5% CMC-Na-1% Tween 80 solution, p.o., 10 mL/kg); • 2) Compounds of Examples 1 to 3, Example 40, Example 41, Examples 48 to 51, Example 90 and Example 98 (10 mg/kg, p.o., 10 mL/kg); Example 9 and Example 52 (5 mg/kg, p.o., 5 mL/kg).
When being administered, the compounds of each example were suspended in 0.5% CMC-Na+1% Tween 80 solution to the desired concentration.
0.5-1 hour after administration, ICR mice were placed in a forced swimming device (transparent glass drum (water depth 18 cm, water temperature 25-26° C.), one mouse per tank) and forced to swim for 6 minutes. The forced swimming device recorded the floating time of the ICR mice during the entire 6 minutes, and the data of the latter four minutes were used for data analysis. The mice were taken out immediately after the swimming experiment, wiped dry and put back in their original cages.
Note: The criterion for determining the immobility time is that the mouse stops struggling in water and floats, and there are only slight limb movements to keep the head floating on the water.
3.4 Data Analysis Floating time percentage=100*floating time/240 s.

The test system of assay [4] is CD-1 mice. The assay can be described thus: PTZ-induced epilepsy model in mice. Type of assay: in vivo. To be noted: 3 mpk p.o., PTZ 120 mg/kg s.c., 30 min observation. How it is done:
The PTZ-induced epilepsy model in CD-1 mice was established, and the antiepileptic effect of the compounds of Example 2, Example 40, Example 41 and Example 52 was evaluated using this model.
50 male CD-1 mice were purchased from Beijing Vital River Laboratory Animal Technology Co. Ltd. The test animals were adapted at the animal room in the third building of Shanghai ChemPartner Co., Ltd for 7 days before the experiment. The average body weight of the animals on the test day was 32.2±0.2 grams. Feeding environment: 5 animals/cage, room temperature 23±2° C., 12/12 hours of light and dark cycle, free access to food and water.
The mice were randomly grouped for the experiment on the test day.
Compounds of Example 2, Example 40, Example 41 and Example 52 (prepared by the applicant). The test compounds were stored in a refrigerator at 4° C.
4.2.3 Test Equipments • 1 ml sterile disposable syringe with needle (purchased from Zhejiang Kangdelai Medical Devices Co., Ltd.) • Pipette: Eppendorf Research Plus (100-1000 μL) • Vortex mixer: Kylin-Bell Vortex 5 • Ultrasonic instrument: JL-360 ultrasonic cleaner • Balance: METTLER TOLEDO XS204 precision balance • Balance: METTLER TOLEDO XS6002S electronic balance • Plexiglass box: 25 cm length*15 cm width*15 cm height with one opaque side wall, custom made by Suzhou Fengshi Laboratory Animal Equipment Co., Ltd • 3-channel timer: Oregon/Model NO. WB-388. 4.2.4 Test Animal Grouping • 1) Vehicle/PTZ: 0.5% CMC-Na+1% Tween-80 (10 ml/kg, p.o.), administered 0.5 hr before the PTZ administration; PTZ ([…], s.c.), administered before the experiment; • 2) 3 mg/kg of the compounds of Examples/PTZ: the compounds of Example 2, Example 40, Example 41 and Example 52 (3 mg/kg, 10 ml/kg, p.o.), administered 0.5 hr before the PTZ administration; PTZ ([…], s.c.), administered before the experiment. 4.3 Experimental Procedures 4.3.1 Solvent Formulation • 1) 0.5% CMC-Na+1% Tween-80 (administration volume: 10 mL/kg):
1 g of sodium carboxymethyl cellulose was precisely weighed and added to a 250 mL solvent bottle, then 150 mL of double-distilled water was added. The mixture was stirred at room temperature for 4 hours with a magnetic stirrer to obtain a uniform and clear solution. 2 mL of Tween-80 was slowly added, and the mixture was stirred at room temperature for 3 hours to obtain a uniform and clear solution. The solution was slowly transferred to a 200 mL volumetric flask, and double distilled water was added to the constant volume of 200 mL. The solution was transferred to a 250 mL solvent bottle, and stirred for 1 hour with a magnetic stirrer to obtain a uniform and clear solution. • 2) 30% hydroxypropyl-p-cyclodextrin:
248 mg of PTZ was precisely weighed and added to a 40 mL brown flask, then 20.667 mL of physiological saline was added. The mixture was mixed by vortex for 2 minutes, and treated by ultrasound at room temperature for 2 minutes to obtain a uniform and clear solution (concentration: 12 mg/mL). • 2) 0.3 mg/mL of the compounds of Example 5 or Example 23 (dose: 3 mg/kg; administration volume: 10 mL/kg): […]
4.4 Adaptation to the Environment
The mice were randomly grouped, marked and weighed; 10 mice per group. The test compound was administered orally at an administration volume of 10 mL/kg 30-60 minutes before the PTZ administration.
PTZ (120 mg/kg) was administrated subcutaneously before the experiment observation, and this time point was recorded as the observation start point; after the administration of PTZ, the animal was immediately placed in the observation box and observed for 30 minutes, and the followings were recorded: a) the incubation period of the first clonic seizure, b) the incubation period of the first generalized tonic seizure, c) the number of clonic seizures, d) the number of generalized tonic seizures, e) the time when the animal died.
All measurement data were expressed as Mean±SEM, and analysed with Prism 6.0 statistical software.

Six molecules from US12590118B2, “Salt and crystal form of steroid derivative regulator” (Shanghai Hansoh Biomedical Co., Ltd., priority 2019, dated 2026) can be followed below.

T1 sequence (P14867 28-456): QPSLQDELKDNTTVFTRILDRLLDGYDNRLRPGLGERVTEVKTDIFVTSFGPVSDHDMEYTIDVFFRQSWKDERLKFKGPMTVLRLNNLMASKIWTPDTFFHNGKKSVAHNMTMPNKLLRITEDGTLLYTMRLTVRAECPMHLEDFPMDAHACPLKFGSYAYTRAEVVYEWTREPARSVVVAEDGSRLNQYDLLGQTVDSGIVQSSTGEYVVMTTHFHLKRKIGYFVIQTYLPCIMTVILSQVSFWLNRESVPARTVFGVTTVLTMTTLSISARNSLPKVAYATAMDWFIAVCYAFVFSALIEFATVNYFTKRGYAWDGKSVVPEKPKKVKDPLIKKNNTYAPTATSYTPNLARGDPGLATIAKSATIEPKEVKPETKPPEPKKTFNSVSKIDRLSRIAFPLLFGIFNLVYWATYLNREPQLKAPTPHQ
T1 sequence (P47870 25-512 limits assumed): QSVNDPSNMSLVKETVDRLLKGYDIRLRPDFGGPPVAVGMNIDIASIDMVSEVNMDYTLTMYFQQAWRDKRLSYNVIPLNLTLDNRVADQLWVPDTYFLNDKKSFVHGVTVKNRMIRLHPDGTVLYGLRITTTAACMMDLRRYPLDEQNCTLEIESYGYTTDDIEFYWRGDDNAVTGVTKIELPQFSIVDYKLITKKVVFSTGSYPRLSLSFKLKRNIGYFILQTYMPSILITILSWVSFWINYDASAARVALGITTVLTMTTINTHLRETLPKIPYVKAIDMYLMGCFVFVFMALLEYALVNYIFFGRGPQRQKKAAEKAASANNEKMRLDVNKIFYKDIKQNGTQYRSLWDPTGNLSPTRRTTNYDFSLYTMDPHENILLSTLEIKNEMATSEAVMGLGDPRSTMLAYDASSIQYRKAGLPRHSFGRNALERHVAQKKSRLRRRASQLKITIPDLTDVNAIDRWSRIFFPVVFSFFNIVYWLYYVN
T1 sequence (P18507 40-475 partner): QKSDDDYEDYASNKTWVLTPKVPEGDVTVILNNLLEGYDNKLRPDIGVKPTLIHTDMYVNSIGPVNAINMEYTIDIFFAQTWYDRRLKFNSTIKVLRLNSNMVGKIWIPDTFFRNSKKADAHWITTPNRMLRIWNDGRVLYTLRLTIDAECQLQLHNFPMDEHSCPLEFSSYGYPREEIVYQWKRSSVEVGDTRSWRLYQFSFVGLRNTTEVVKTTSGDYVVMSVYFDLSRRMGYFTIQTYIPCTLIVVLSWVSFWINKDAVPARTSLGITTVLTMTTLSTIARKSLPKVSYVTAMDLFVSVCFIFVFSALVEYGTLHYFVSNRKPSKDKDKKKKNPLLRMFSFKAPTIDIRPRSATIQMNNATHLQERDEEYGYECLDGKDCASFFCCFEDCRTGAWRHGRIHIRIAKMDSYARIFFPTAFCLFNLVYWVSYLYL

Consider `C[C@@]1(O)CC[C@H]2[C@H](CC[C@@H]3[C@@H]2CC[C@@]2(C)[C@H]3[C@H](C3CC3)C[C@@H]2C(=O)Cn2nc(C#N)cc2C#N)C1` [Example 96, 1-(2-((3R,5R,8R,9R,10S,13S,14S,15S,17S)-15-Cyclopropyl-3-hydroxy-3,13-dimethylhexadecahydro-1H-cyclopenta[a]phenanthren-17-yl)-2-oxoethyl)-1H-pyrazole-3,5-dicarbonitrile], for which the 50% inhibitory concentration (IC50) (as a rule, the concentration needed to halve the response being measured) in assay [1] was determined as 28.5 nM. Besides, in assay [2], the EC50 (commonly the midpoint of the concentration-response curve) was 84 nM.

For the molecule `C[C@@H]1C[C@H](C(=O)Cn2nc(C#N)cc2C#N)[C@@]2(C)CC[C@H]3[C@@H](CC[C@@H]4C[C@](C)(O)CC[C@@H]43)[C@H]12` [Example 89, 1-(2-((3R,5R,8R,9R,10S,13S,14S,15R,17S)-3-Hydroxy-3,13,15-trimethylhexadecahydro-1H-cyclopenta[a]phenanthren-17-yl)-2-oxoethyl)-1H-pyrazole-3,5-dicarbonitrile], the IC50 in assay [1] amounted to 4.3 nM. Also, in assay [2], the EC50 was 43 nM.

On to `C[C@@H]1C[C@H](C(=O)Cn2cc(C#N)cn2)[C@@]2(C)CC[C@H]3[C@@H](CC[C@@H]4C[C@](C)(O)CC[C@@H]43)[C@H]12` [Example 9, 1-(2-((3R,5R,8R,9R,10S,13S,14S,15R)-3-Hydroxy-3,13,15-trimethylhexadecahydro-1H-cyclopenta[a]phenanthren-17-yl)-2-oxoethyl)-1H-pyrazole-4-carbonitrile], for which, in assay [3] (dose 5 mpk p.o.), the “Mean (immobility, %)” value came to 57.60% and the “Mean (immobility, s)” value turned out to be 138.22 s. Further, the IC50 in assay [1] came out at 4.6 nM. A half-maximal effect in assay [2] (EC50) was put at 60 nM.

For `C[C@@H]1C[C@H](C(=O)Cn2cc(C#N)c(Cl)n2)[C@@]2(C)CC[C@H]3[C@@H](CC[C@@H]4C[C@](C)(O)CC[C@@H]43)[C@H]12` [Example 88, 3-Chloro-1-(2-((3R,5R,8R,9R,10S,13S,14S,15R,17S)-3-hydroxy-3,13,15-trimethylhexadecahydro-1H-cyclopenta[a]phenanthren-17-yl)-2-oxoethyl)-1H-pyrazole-4-carbonitrile], the IC50 in assay [1] worked out at 6.7 nM. Moreover, a half-maximal response in assay [2] (EC50) required 49 nM.

Consider `C[C@@H]1C[C@H](C(=O)Cn2nccn2)[C@@]2(C)CC[C@H]3[C@@H](CC[C@@H]4C[C@](C)(O)CC[C@@H]43)[C@H]12` [Example 41, 1-((3R,5R,8R,9R,10S,13S,14S,15R,17S)-3-Hydroxy-3,13,15-trimethylhexadecahydro-1H-cyclopenta[a]phenanthren-17-yl)-2-(2H-1,2,3-triazol-2-yl)ethan-1-one], for which, in assay [4], the “Incubation period of the clonic seizure (sec) Mean ± SEM” value turned out to be 841.4 ± 179.8 s, the “Incubation period of the generalized tonic seizure (sec) Mean” value was 1497.4 ± 124.3 s, the “Mortality rate (%)” value is 40% and the “Number of clonic seizures Mean” value stood at 1.9 ± 0.4. Further, in assay [4], the “Number of generalized tonic seizures Mean” value stood at 0.5 ± 0.2 and the “Time when the animal died (sec) Mean” value came out at 1573.1 ± 117.9 s. In assay [3] (dose 10 mpk p.o.), the “Mean (immobility, %)” value came to 35.75% and the “Mean (immobility, s)” value is 85.8 s. In addition, the “immobility time during the latter four minutes compared with that of the model group” value in assay [3] (forced swimming, ICR mice) is given as “very significantly different”. In addition, the EC50 in assay [2] amounted to 130 nM.

On to `C[C@@H]1C[C@H](C(=O)Cn2ccc(C(F)(F)F)n2)[C@@]2(C)CC[C@H]3[C@@H](CC[C@@H]4C[C@](C)(O)CC[C@@H]43)[C@H]12` [Example 86, 1-((3R,5R,8R,9R,10S,13S,14S,15R,17S)-3-Hydroxy-3,13,15-trimethylhexadecahydro-1H-cyclopenta[a]phenanthren-17-yl)-2-(3-(trifluoromethyl)-1H-pyrazol-1-yl)ethan-1-one], for which the IC50 in assay [1] was found to be 8 nM. This molecule returned an EC50 in assay [2] of 74 nM.
